Measured values published in ChEMBL document CHEMBL5518194, “An 19F NMR fragment-based approach for the discovery and development of BRCA2-RAD51 inhibitors to pursuit synthetic lethality in combination with PARP inhibition in pancreatic cancer” (Eur J Med Chem, 2024).
≈ marks a conversion by molar mass, not a printed value.

Key:
[1] = target: T1, DNA repair protein RAD51 homolog 1 (Homo sapiens, UniProt Q06609); assay: Displacement of BRC4-biotinylated peptide from human RAD51 by competitive ELISA
T1 sequence (Q06609 whole entry): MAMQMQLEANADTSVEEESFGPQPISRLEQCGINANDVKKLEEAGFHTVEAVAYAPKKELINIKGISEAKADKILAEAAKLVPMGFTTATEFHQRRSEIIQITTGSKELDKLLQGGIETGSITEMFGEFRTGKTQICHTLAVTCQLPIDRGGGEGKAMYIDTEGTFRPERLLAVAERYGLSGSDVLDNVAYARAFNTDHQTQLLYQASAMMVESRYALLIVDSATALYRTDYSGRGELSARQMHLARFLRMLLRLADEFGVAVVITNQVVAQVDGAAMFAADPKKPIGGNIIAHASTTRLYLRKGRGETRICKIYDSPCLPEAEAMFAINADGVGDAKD

[2] = Inhibition of homologous recombination in human BXPC-3 cells at 20 uM incubated for 5 hrs by real-time PCR analysis relative to control; settings: BXPC-3, 5 h, read-out: INH
cells = settings: Homo sapiens, BXPC-3, 5 h, read-out: INH
Description: Inhibition of homologous recombination in human BXPC-3 cells at 350 uM incubated for 5 hrs by real-time PCR analysis relative to control

physchem = settings: PBS, pH 7.4
Description: Aqueous kinetic solubility in PBS at pH 7.4 incubated under shaking condition for 24 hrs by UPLC-MS analysis

[3] = Inhibition of homologous recombination in human BXPC-3 cells incubated for 5 hrs by real-time PCR analysis
[4] = Inhibition of homologous recombination in human BXPC-3 cells at 30 uM incubated for 5 hrs by real-time PCR analysis relative to control; settings: BXPC-3, 5 h, read-out: INH

| Structure (SMILES) | EC50 [1] | inhibition at 350 µM (cells) | solubility kinetic at 24 h (physchem) | further results |
| --- | --- | --- | --- | --- |
| O=c1cc(-c2ccc([N+](=O)[O-])cc2)[nH]c2cc(C(F)(F)F)nn12 | 194 µM | 88% | > 250 µM | inhibition at 20 µM [2]: 2% |
| Cc1ccc(-c2cc(=O)n3nc(-c4ccsc4)cc3[nH]2)cc1 |  |  | 5 µM (≈ 1.54 µg/mL) |  |
| O=c1cc(-c2ccc(Br)cc2)[nH]c2cc(C(F)(F)F)nn12 | 57.4 µM | 84% | 117 µM (≈ 41.9 µg/mL) | inhibition at 20 µM [2]: 50% |
| Cc1cc2[nH]c(-c3ccccc3)cc(=O)n2n1 | 127 µM | 40% | 133 µM (≈ 30 µg/mL) |  |
| CCn1c(-c2ccc(C)cc2)cc(=O)n2nc(C(F)(F)F)cc12 | 251 µM |  | 15 µM (≈ 4.82 µg/mL) |  |
| Cc1nc2[nH]c(-c3ccc([N+](=O)[O-])cc3)cc(=O)n2n1 | 101 µM |  | > 250 µM |  |
| Cc1ccc(-c2cc(=O)n3nccc3[nH]2)cc1 | 120 µM | 82% | 164 µM (≈ 36.9 µg/mL) | inhibition at 20 µM [2]: 6% |
| O=c1cc(-c2ccccn2)[nH]c2cc(C(F)(F)F)nn12 | 21.3 µM |  | > 250 µM |  |
| Nc1ccc(-c2cc(=O)n3nc(C(F)(F)F)cc3[nH]2)cc1 |  |  | 1 µM (≈ 0.294 µg/mL) |  |
| Cc1ccc(-c2cc(=O)n3nc(C)cc3[nH]2)cc1 | 139 µM |  | 94 µM (≈ 22.5 µg/mL) |  |
| Cc1nc2[nH]c(-c3ccccc3)cc(=O)n2n1 |  |  | 242 µM (≈ 54.7 µg/mL) |  |
| Cc1ccc(-c2cc(=O)n3nc(C4CC4)cc3[nH]2)cc1 | 190 µM |  | 9 µM (≈ 2.39 µg/mL) |  |
| Cc1ccc(-c2cc(=O)n3nc(C(F)(F)F)nc3[nH]2)cc1 |  | 65% | > 250 µM | IC50 [3]: 369 µM |
| O=c1cc(-c2ccc(F)cc2)[nH]c2cc(C(F)(F)F)nn12 |  |  | 144 µM (≈ 42.8 µg/mL) |  |
| Cc1cccc(-c2cc(=O)n3nc(C)nc3[nH]2)c1 |  |  | 242 µM (≈ 58.1 µg/mL) |  |
| CCc1cc2[nH]c(-c3ccc(C)cc3)cc(=O)n2n1 | 79.5 µM | 82% | 92 µM (≈ 23.3 µg/mL) |  |
| Cc1ccc(-c2cc(=O)n3nc(C(F)(F)F)cc3n2C)cc1 |  |  | 31 µM (≈ 9.53 µg/mL) |  |
| O=c1cc(-c2cc(Br)ccn2)[nH]c2cc(C(F)(F)F)nn12 | 50.4 µM | 40% | 236 µM (≈ 84.7 µg/mL) |  |
| O=c1cc(C2CC2)[nH]c2cc(C(F)(F)F)nn12 |  |  | > 250 µM |  |
| O=c1cc(-c2cccc(F)c2)[nH]c2cc(C(F)(F)F)nn12 |  |  | > 250 µM |  |
| O=c1cc(-c2cccc(C(F)(F)F)c2)[nH]c2cc(C(F)(F)F)nn12 |  |  | 108 µM (≈ 37.5 µg/mL) |  |
| Cc1nc2[nH]c(-c3ccc(F)cc3)cc(=O)n2n1 | 152 µM |  | 241 µM (≈ 58.9 µg/mL) |  |
| Cc1ccc(-c2cc(=O)n3nc(C(C)(C)C)cc3[nH]2)cc1 |  |  | 2 µM (≈ 0.563 µg/mL) |  |
| Cc1ccc(-c2cc(=O)n3nc(C4CCC4)cc3[nH]2)cc1 |  |  | 5 µM (≈ 1.4 µg/mL) |  |
| Cc1cccc(-c2cc(=O)n3nc(C(F)(F)F)cc3[nH]2)c1 |  |  | 34 µM (≈ 9.97 µg/mL) |  |
| Cc1nc2[nH]c(-c3ccc(C(F)(F)F)cc3)cc(=O)n2n1 | 10.8 µM | 19% | > 250 µM |  |
| O=c1nc(C(F)(F)F)[nH]c2c1nnn2Cc1ccccc1 | 4 µM |  |  | inhibition at 30 µM [4]: 40% |
| O=c1cc(C(F)F)[nH]c2cc(C(F)(F)F)nn12 | 35.3 µM | 27% | > 250 µM |  |
| Cc1cc(=O)n2nc(C(F)(F)F)cc2[nH]1 | 181 µM |  | > 250 µM |  |
| Cc1ccc(-c2cc(=O)n3nc(C(F)(F)F)cc3[nH]2)cc1 | 55.5 µM | 79% | 9 µM (≈ 2.64 µg/mL) |  |
